Reference: patent publication US20140242093A1, “METHODS AND COMPOSITIONS FOR MODULATING THE INNATE IMMUNE RESPONSE AND/OR MYOGENESIS IN A MAMMALIAN SUBJECT” (FRED HUTCHINSON CANCER RESEARCH CENTER, priority 2011, published 2014)

System: control human primary myoblasts
Test: Expression microarray of primary myoblasts transduced with lentivirus carrying DUX4-fl, DUX4-s or GFP
Settings: log2 fc vs lenti-GFP, 24 h
Experimental: Primary human myoblasts were collected and cultured as previously described (Snider et al., 2010). Primary myoblasts were maintained at or below 70% confluency for proliferation. For differentiation, cells were allowed to reach 95-100% confluency in growth medium. Once confluency was reached, the cells were changed to differentiation medium (F10 media supplemented with 1% horse serum, 10 μg/mL insulin, and 10 μg/mL transferrin, penicillin/streptomycin) and maintained for 4 days. Human RD cells were grown in DMEM in 10% bovine calf serum (Hyclone) and penicillin/streptomycin. The primary myoblasts were transduced with lentivirus carrying DUX-fl, DUX4- or GFP (MOI=15).
Expression microarrays were performed on the transduced cells at 24 hours after transduction as follows. […] Samples were analyzed by Illumina Human Whole Genome microarrays. Probe intensities were corrected, normalized, and summarized by the Lumi package of Bioconductor (Du et al., 2008). Differentially expressed genes were identified by the LIMMA package of Bioconductor (Wettenhall and Smyth, 2004). Gene set enrichment analysis (GSEA) was performed using the Bioconductor GOstats package (Falcon and Gentleman, 2007).

For “DUX4-fl: full-length DUX4 protein (SEQ ID NO:110), expressed from lentiviral or pCS2 vectors or in vitro translated”, the “full_fc ART3” value was 4.363, the “full_fc C6orf148” value was 6.759 and the “full_fc C12orf50” value was 4.522. For the same substance, the “full_fc CA2” value was 6.091, the “full_fc CCNA1” value was 7.526 and the “full_fc CSAG3” value was 5.871. The “full_fc DEFB103A” value was 6.442, the “full_fc ENTPD8” value was 4.073 and the “full_fc HBA1” value was 4.787. The “full_fc HBA2” value was 4.721, the “full_fc HIST2H3A” value was 4.945 and the “full_fc KHDC1L” value was 8.012. The “full_fc LOC136157” value was 8.299, the “full_fc LOC196120” value was 8.179 and the “full_fc LOC284428” value was 8.023. For the same substance, the “full_fc LOC340096” value was 7.382, the “full_fc LOC340970” value was 8.316 and the “full_fc LOC342900” value was 7.391. For the same substance, the “full_fc LOC390031” value was 8.331, the “full_fc LOC391742” value was 5.733 and the “full_fc LOC391764” value was 5.821. For the same substance, the “full_fc LOC391766” value was 5.724, the “full_fc LOC391767” value was 5.492 and the “full_fc LOC391769” value was 8.19. For the same substance, the “full_fc LOC399939” value was 6.931, the “full_fc LOC399940” value was 4.727 and the “full_fc LOC401860” value was 4.272. The “full_fc LOC402199” value was 4.392, the “full_fc LOC402207” value was 4.903 and the “full_fc LOC440040” value was 7.534. For the same substance, the “full_fc LOC440563” value was 5.312, the “full_fc LOC441584” value was 7.781 and the “full_fc LOC642127” value was 6.112. For the same substance, the “full_fc LOC642148” value was 6.851, the “full_fc LOC642219” value was 4.799 and the “full_fc LOC642362” value was 8.016. The “full_fc LOC643263” value was 8.345, the “full_fc LOC643445” value was 8.25 and the “full_fc LOC645558” value was 4.803. For the same substance, the “full_fc LOC645669” value was 8.202, the “full_fc LOC646066” value was 4.391 and the “full_fc LOC646103” value was 4.658. For the same substance, the “full_fc LOC646698” value was 6.012, the “full_fc LOC646754” value was 5.11 and the “full_fc LOC647827” value was 4.053. The “full_fc LOC651308” value was 8.169, the “full_fc LOC653192” value was 8.228 and the “full_fc LOC653656” value was 7.897. For the same substance, the “full_fc LOC653657” value was 7.857, the “full_fc LOC654101” value was 5.034 and the “full_fc LOC729368” value was 5.416. For the same substance, the “full_fc LOC729384” value was 6.832, the “full_fc LOC729458” value was 8.247 and the “full_fc LOC729516” value was 5.955. For the same substance, the “full_fc LOC729694” value was 4.029, the “full_fc LOC729700” value was 4.817 and the “full_fc LOC729706” value was 4.227. The “full_fc LOC729731” value was 5.007, the “full_fc LOC730974” value was 7.715 and the “full_fc LOC732393” value was 4.637. The “full_fc LOC100131392” value was 6.976, the “full_fc LOC100131539” value was 4.629 and the “full_fc LOC100133446” value was 4.635. For the same substance, the “full_fc LOC100133984” value was 6.204, the “full_fc LOC100134006” value was 7.087 and the “full_fc LOC100134199” value was 8.048. For the same substance, the “full_fc MBD3L2” value was 7.623, the “full_fc NP” value was 6.961 and the “full_fc NXF1” value was 4.233. For the same substance, the “full_fc OR2T34” value was 4.519, the “full_fc PPP2R2B” value was 4.13 and the “full_fc PRAMEF1” value was 8.072. The “full_fc PRAMEF2” value was 6.439, the “full_fc PRAMEF4” value was 7.06 and the “full_fc PRAMEF5” value was 7.35. For the same substance, the “full_fc PRAMEF6” value was 5.826, the “full_fc PRAMEF7” value was 7.631 and the “full_fc PRAMEF9” value was 7.131. For the same substance, the “full_fc PRAMEF10” value was 6.064, the “full_fc PRAMEF11” value was 5.94 and the “full_fc PRAMEF12” value was 7.802.
